The record followed here is publication PMC5834943 (ACS chemical biology, 2017).

The target of assay [1] is T1, branched-chain aminotransferase (MtIlvE) (Mycobacterium tuberculosis, UniProt P9WQ75). In words: biochemical. The class given is binding.
Assay [2] addresses T1, branched-chain aminotransferase (MtIlvE). In words: […]. It is filed as biochemical. To be noted: read-out: Ki.

T1 sequence (P9WQ75 whole entry): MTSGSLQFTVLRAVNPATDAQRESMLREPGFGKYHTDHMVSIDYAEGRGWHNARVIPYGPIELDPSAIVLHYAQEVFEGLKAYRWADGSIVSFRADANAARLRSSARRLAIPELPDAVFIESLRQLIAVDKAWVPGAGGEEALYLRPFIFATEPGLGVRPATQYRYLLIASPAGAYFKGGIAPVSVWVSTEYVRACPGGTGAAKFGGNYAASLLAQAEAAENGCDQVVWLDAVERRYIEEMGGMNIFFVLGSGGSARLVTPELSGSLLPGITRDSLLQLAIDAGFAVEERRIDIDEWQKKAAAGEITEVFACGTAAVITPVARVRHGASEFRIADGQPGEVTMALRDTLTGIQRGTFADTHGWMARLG

One may read the kinact/KI as the second-order rate constant of inactivation. Turning to `N[C@@H]1CON=C1O` [DCS, D-Cycloserine], in assay [1], the kinact/KI was 0.12 M⁻¹ s⁻¹.

`N[C@H]1CONC1=O` [LCS, L-cycloserine]: the KI (inactivation) in assay [2] worked out at 88 µM.
